Consider 10 molecules from ChEMBL document CHEMBL1201862, “PubChem BioAssay data set” (2004).

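Tested at 5 concentrations; 48 h exposure; 96-well plates; endpoints linearly interpolated, else capped at highest concentration. Abbreviation: GI50, concentration required for 50% inhibition of growth.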 Active and inactive are the calls of the source. Rule as the data show it: active = GI50 up to about 1.1 µM and inactive = higher.

Among the test systems are IGROV-1; TK-10; PC-3; NCI/ADR-RES; LOX IMVI; OVCAR-8; SK-MEL-28; COLO 205; 786-0; MOLT-4; RXF 393; SK-OV-3; HCT-15; SNB-75; MDA-MB-435; UO-31; CAKI-1; SNB-19; OVCAR-3; CCRF-CEM.
Holding throughout (assay): NCI tumour cell line growth inhibition, 48 h

Turning to `Cn1c(=O)c2nc(COCc3nc4c(=O)n(C)c(=O)n(C)c4[nH]3)[nH]c2n(C)c1=O`, the GI50 in the assay with IGROV-1, in the assay with TK-10, with PC-3, in the assay on NCI/ADR-RES, in the assay with LOX IMVI and with OVCAR-8 was > 100 µM (inactive) in each case. Besides, the GI50 in the assay on SK-MEL-28, in the assay with COLO 205, in the assay on 786-0, with MOLT-4, in the assay with RXF 393 and with SK-OV-3 was > 100 µM (inactive) throughout. The GI50 in the assay on HCT-15 is above 100 µM; with SNB-75, > 100 µM (inactive); with MDA-MB-435 it was > 100 µM (inactive); in the assay on UO-31, > 100 µM (inactive); in the assay on CAKI-1, > 100 µM (inactive); with SNB-19, > 100 µM (inactive). Further, the GI50 in the assay with OVCAR-3 and in the assay with CCRF-CEM was > 100 µM (inactive) in each case.
For the molecule `NCCNc1ccc(NCCN)c2c1C(=O)c1c(O)ccc(O)c1C2=O`, the GI50 is 0.0873 µM (active) with IGROV-1; 0.428 µM (active) in the assay on TK-10; 0.205 µM (active) in the assay on PC-3; 0.192 µM (active) in the assay on NCI/ADR-RES; 0.007 µM (active) in the assay on LOX IMVI; 0.0158 µM (active) with OVCAR-8. Further, the GI50 with SK-MEL-28 is 1.07 µM (active); in the assay on COLO 205 it was 1.08 µM (active); with 786-0, 0.00459 µM (active); in the assay with MOLT-4, < 0.001 µM (active); with RXF 393, 0.0719 µM (active); in the assay with SK-OV-3, 0.0266 µM (active). The GI50 in the assay on HCT-15 was 0.161 µM; in the assay with SNB-75, 0.0162 µM (active); with MDA-MB-435, 1.15 µM (inactive); in the assay on UO-31, 0.0391 µM (active); with CAKI-1, 0.00711 µM (active); in the assay with SNB-19 it was 0.00944 µM (active). Also, the GI50 with OVCAR-3 was 0.486 µM (active); with CCRF-CEM it was 0.00791 µM (active).
Regarding `COc1ccc(C2c3c(n(C)c(=O)n(C)c3=O)OC(N(C)C)(N(C)C)C2(F)F)cc1` (stereo not drawn), the GI50 with TK-10, in the assay with PC-3, in the assay with NCI/ADR-RES, in the assay on LOX IMVI, with SK-MEL-28 and with COLO 205 was > 100 µM (inactive) throughout. Moreover, the GI50 in the assay on 786-0 was > 100 µM (inactive); in the assay on MOLT-4 it was 2.92 µM (inactive); with RXF 393 it was > 100 µM (inactive); in the assay with SK-OV-3, > 100 µM (inactive); with HCT-15, above 100 µM; in the assay on SNB-75 it was > 100 µM (inactive). The GI50 in the assay on MDA-MB-435, in the assay with UO-31, in the assay with CAKI-1, in the assay on SNB-19, in the assay with OVCAR-3 and with CCRF-CEM was > 100 µM (inactive) throughout.
With `O=C[C@@H](CO)O[C@H](C=O)n1cnc2c(=O)nc[nH]c21`, the GI50 is 188 µM (inactive) in the assay with IGROV-1; 596 µM (inactive) in the assay with TK-10; 376 µM (inactive) in the assay with PC-3; 438 µM (inactive) in the assay on NCI/ADR-RES; 86.9 µM (inactive) with LOX IMVI; 404 µM (inactive) in the assay with OVCAR-8. The GI50 was 369 µM (inactive) with SK-MEL-28; 288 µM (inactive) with COLO 205; 607 µM (inactive) with 786-0; 123 µM (inactive) in the assay with MOLT-4; 239 µM (inactive) in the assay with RXF 393; 501 µM (inactive) with SK-OV-3. In addition, the GI50 with HCT-15 is 73.8 µM; in the assay with SNB-75, 667 µM (inactive); in the assay on MDA-MB-435, 243 µM (inactive); in the assay with UO-31, 401 µM (inactive); with CAKI-1, 319 µM (inactive); in the assay with SNB-19, 638 µM (inactive). The GI50 is 290 µM (inactive) in the assay with OVCAR-3 and 77.3 µM (inactive) with CCRF-CEM.
`N#CC1(C#N)NC(c2cccs2)C(C#N)(C#N)NC1c1cccs1` (stereo not drawn): the GI50 in the assay on IGROV-1 was 30.3 µM (inactive); in the assay with TK-10, > 100 µM (inactive); with PC-3, 27.4 µM (inactive); with NCI/ADR-RES, 77.3 µM (inactive); with LOX IMVI it was 19.7 µM (inactive); in the assay with OVCAR-8, 54.7 µM (inactive). Moreover, the GI50 with SK-MEL-28 is 29.6 µM (inactive); with COLO 205, 47.9 µM (inactive); in the assay with 786-0, 39.9 µM (inactive); with MOLT-4, 23.3 µM (inactive); with RXF 393, 31.7 µM (inactive); in the assay with SK-OV-3, 33.7 µM (inactive). Besides, the GI50 in the assay on HCT-15 is 30.7 µM; with SNB-75, 27.4 µM (inactive); with MDA-MB-435 it was 46.1 µM (inactive); in the assay on UO-31, 42.6 µM (inactive); in the assay on CAKI-1, 58.6 µM (inactive); in the assay on SNB-19, 55.2 µM (inactive). Besides, the figures for the GI50 with OVCAR-3 and with CCRF-CEM were 25.2 µM (inactive) and 22.2 µM (inactive), respectively.
`COc1cc(OC)c2c(c1)OC(c1cccnc1)C(c1ccccc1)C2=O` (stereo not drawn): the GI50 with IGROV-1 is > 100 µM (inactive); in the assay on TK-10, > 100 µM (inactive); with PC-3, 93.3 µM (inactive); in the assay with NCI/ADR-RES it was 72.1 µM (inactive); in the assay with LOX IMVI, > 100 µM (inactive); in the assay with OVCAR-8 it was 59.3 µM (inactive). The GI50 in the assay with SK-MEL-28, in the assay on COLO 205, in the assay with 786-0, with MOLT-4, in the assay with RXF 393 and with SK-OV-3 was > 100 µM (inactive) in each case. Besides, the GI50 in the assay with HCT-15 was above 100 µM; with SNB-75, > 100 µM (inactive); in the assay with MDA-MB-435, 84.5 µM (inactive); in the assay with UO-31, 35.8 µM (inactive); in the assay on CAKI-1, 74.8 µM (inactive); with SNB-19, > 100 µM (inactive). Further, the GI50 with OVCAR-3 was 86.3 µM (inactive); in the assay on CCRF-CEM it was > 100 µM (inactive).
`C=C1C(=O)O[C@H]2[C@H]3O[C@@H](C[C@@H]12)[C@@]1(C)CC[C@H](O1)[C@H](C)CCC[C@H]3C`: the GI50 with IGROV-1 was 1.19 µM (inactive); in the assay on TK-10, 1.62 µM (inactive); in the assay with PC-3, 1.61 µM (inactive); with NCI/ADR-RES it was 1.53 µM (inactive); in the assay on LOX IMVI it was 1.55 µM (inactive); in the assay on OVCAR-8, 1.38 µM (inactive). Besides, the GI50 with SK-MEL-28 was 1.63 µM (inactive); in the assay on COLO 205 it was 1.75 µM (inactive); in the assay with 786-0, 1.31 µM (inactive); with MOLT-4 it was 1.23 µM (inactive); in the assay on RXF 393 it was 2.15 µM (inactive); with SK-OV-3, 7.38 µM (inactive). Besides, the GI50 in the assay with HCT-15 was 1.81 µM; in the assay with SNB-75, 1.63 µM (inactive); with MDA-MB-435, 1.32 µM (inactive); in the assay with UO-31, 1.56 µM (inactive); in the assay with CAKI-1 it was 1.28 µM (inactive); in the assay with SNB-19, 10.1 µM (inactive). For the same molecule, the results for the GI50 with OVCAR-3 and in the assay on CCRF-CEM were 1.1 µM (active) and 0.399 µM (active), respectively.
For `COc1cc(/C=N/NC(=O)c2c(Cl)c(Cl)c(Cl)c(Cl)c2-c2nc3cc(C(=O)c4ccccc4)ccc3[nH]2)ccc1O`, the GI50 in the assay with IGROV-1 was 47.6 µM (inactive); with TK-10, 45.5 µM (inactive); in the assay with PC-3, 35.2 µM (inactive); in the assay with NCI/ADR-RES, 20.9 µM (inactive); in the assay on LOX IMVI it was 50.9 µM (inactive); with OVCAR-8, 59.3 µM (inactive). Besides, the GI50 in the assay on SK-MEL-28 is 49.2 µM (inactive); with COLO 205, 24.8 µM (inactive); in the assay with 786-0, 37.2 µM (inactive); with MOLT-4, 16.4 µM (inactive); in the assay on RXF 393, 21.6 µM (inactive); in the assay on SK-OV-3 it was 56.4 µM (inactive). Also, the GI50 is 15.6 µM with HCT-15; 42.1 µM (inactive) in the assay on SNB-75; 13.8 µM (inactive) with MDA-MB-435; 45.6 µM (inactive) with UO-31; 62.2 µM (inactive) with CAKI-1; 62.1 µM (inactive) in the assay with SNB-19. In addition, the figures for the GI50 in the assay on OVCAR-3 and with CCRF-CEM were 40 µM (inactive) and 23 µM (inactive), respectively.
Take `COc1ccc2c(c1OC)OCC(CN(C)C)C2=O` (stereo not drawn): the GI50 with IGROV-1 was 18.6 µM (inactive); in the assay with TK-10, 16.7 µM (inactive); with PC-3 it was 18.7 µM (inactive); with NCI/ADR-RES it was 27.7 µM (inactive); with LOX IMVI it was 14.3 µM (inactive); in the assay on OVCAR-8 it was 22.1 µM (inactive). Further, the GI50 in the assay with SK-MEL-28 is 17.4 µM (inactive); with COLO 205, 8.07 µM (inactive); in the assay on 786-0 it was 12.6 µM (inactive); with MOLT-4, 2.23 µM (inactive); in the assay on RXF 393, 16.6 µM (inactive); in the assay on SK-OV-3 it was > 43.1 µM (inactive). Further, the GI50 is 18.1 µM with HCT-15; 22.3 µM (inactive) in the assay with SNB-75; 19.5 µM (inactive) in the assay with MDA-MB-435; 18.2 µM (inactive) with UO-31; 3.01 µM (inactive) in the assay with CAKI-1; > 100 µM (inactive) in the assay on SNB-19. Also, the figures for the GI50 with OVCAR-3 and in the assay with CCRF-CEM were 21.5 µM (inactive) and 2.15 µM (inactive), respectively.
Consider `CN(C)c1nc2n(CCO)ccnc-2c(=O)n1`, for which the GI50 with IGROV-1, in the assay on TK-10, with PC-3, in the assay with NCI/ADR-RES, in the assay with LOX IMVI and in the assay with OVCAR-8 was > 100 µM (inactive) in each case. Moreover, the GI50 in the assay with SK-MEL-28, in the assay on COLO 205, in the assay on 786-0, in the assay on MOLT-4, in the assay on RXF 393 and in the assay on SK-OV-3 was > 100 µM (inactive) each time. Moreover, the GI50 with HCT-15 is above 100 µM; with SNB-75, > 100 µM (inactive); with MDA-MB-435, > 100 µM (inactive); with UO-31, > 100 µM (inactive); in the assay with CAKI-1, > 100 µM (inactive); with SNB-19, > 100 µM (inactive). In addition, the GI50 in the assay on OVCAR-3 and with CCRF-CEM was > 100 µM (inactive) throughout.
